Assay type in all cases: cell-based
Assay [1] relates to EcR1: Penicillinase-Producing Escherichia coli without Associated Resistance. Description: Antibiogram, MIC by the VITEK 2 system. The conditions noted are these: for CA-SFM Interpretation: EcR1, MIC against Cc CA-SFM 2011; for CLSI Interpretation: EcR1, MIC against Cc CLSI 2011; for Results: EcR1, interpretation of the MIC, Table A1; for MIC: Escherichia coli; for EUCAST Interpretation: EcR1, MIC against Cc EUCAST 2011. How it is done:
(§1) 5.1 EcR1: Penicillinase-Producing Escherichia coli without Associated Resistance The bacterial and antibiogramidentification is carried out by the VITEK 2 system (bioMérieux) and by the disk diffusion technique.

The test system is the same in assay [2]. Briefly: Antibiogram by the disk diffusion technique. To be noted: Table A1; for Diameter: EcR1, disk diffusion; for Results: EcR1, interpretation of the diameter against Dmin Dmax. How it is done: as §1
On the technique in general: In agar diffusion tests the substance spreads into inoculated agar from a disc or well.

The subject of assay [3] is EcR2: Cephalosporinase-Hyperproducing Strain of Escherichia coli. Briefly: Antibiogram by the disk diffusion technique. To be noted: for Results: EcR2, rows that print a diameter. How it is done:
(§2) The bacterial and antibiogramidentification is carried out by the VITEK 1 system (bioMérieux) and by the disk diffusion technique

Assay [4] concerns EcR3: ESBL-Producing Escherichia coli. Description: Antibiogram by the disk diffusion technique. To be noted: for CA-SFM Interpretation: Cd CA-SFM 2011; for CLSI Interpretation: Cd CLSI 2011; for EUCAST Interpretation: Cd EUCAST 2011; for Results: Table C1, against Dmin Dmax; for diameter in mm: Table C2; for Diameter: Table C1. How it is done: The bacterial and antibiogramidentification is carried out by the VITEK 2 system (bioMerieux) and by the disk diffusion technique

For assay [5], the system named is SaR3: Meticillin-Resistant Staphylococcus aureus. Description: Antibiogram by the disk diffusion technique. To be noted: for CA-SFM Interpretation: Cd CA-SFM 2011; for diameter in mm: Table E2; for Diameter: Table E1; for Results: Table E1, against Dmin Dmax. The method, then:
(§3) The bacterial and antibiogramidentification is carried out by the VITEK 2 system (bioMérieux) and by the disk diffusion technique

For assay [6], the system named is SaR4: Meticillin-Resistant Staphylococcus aureus. Briefly: Antibiogram, MIC by the VITEK 2 system. To be noted: SaR4; for CA-SFM Interpretation: from MIC, Cc CA-SFM 2011. How it is done: as §3
Assay [7] concerns SaR1: Meticillin-Resistant Staphylococcus aureus without Associated Resistance. Description: Antibiogram, inhibition diameter (Table D1). The conditions noted are these: for Results: from diameter, against Dmin Dmax. The method, then: (§4) The bacterial and antibiogramidentification is carried out by the VITEK 2 system (bioMérieux)
Assay [8] has the same test system. Briefly: Antibiogram, MIC by the VITEK 2 system. To be noted: SaR1; for CA-SFM Interpretation: Cc CA-SFM 2011; for Results: from MIC. How it is done:
as §4

Assay [9] has as its system EcR2: Cephalosporinase-Hyperproducing Strain of Escherichia coli. Description: Antibiogram, MIC by the VITEK 1 system. To be noted: for CA-SFM Interpretation / CLSI Interpretation / EUCAST Interpretation: from MIC; for CA-SFM Interpretation: Cc CA-SFM 2011; for CLSI Interpretation: Cc CLSI 2011; for EUCAST Interpretation: Cc EUCAST 2011; for MIC: Escherichia coli, read-out: MIC. How it is done:
as §2

The test system of assay [10] is PaR5: Pseudomonas aeruginosa. Description: Antibiogram by the disk diffusion technique. To be noted: for Diameter / Results / CA-SFM Interpretation / CLSI Interpretation / EUCAST Interpretation: PaR5; for Diameter / Results: Table I1; for Results: against Dmin-Dmax; for diameter in mm: disk diffusion inhibition diameter, strain PaR5; for CA-SFM Interpretation / CLSI Interpretation / EUCAST Interpretation: disk diffusion; for CA-SFM Interpretation: versus critical diameter CA-SFM 2011; for CLSI Interpretation: versus critical diameter CLSI 2011; for EUCAST Interpretation: versus critical diameter EUCAST 2011, for ** antibiotics the disk load differs and the EUCAST interpretation is not applicable. The method, then: as §3

In assay [11] the test system is PaR2: Pseudomonas aeruginosa. The conditions noted are these: for CA-SFM Interpretation: Cd CA-SFM 2011; for CLSI Interpretation: Cd CLSI 2011; for EUCAST Interpretation: Cd EUCAST 2011; for Diameter: Table G1; for Results: Table G1, against Dmin-Dmax; for diameter in mm: Table G2. The method, then: as §3
In assay [12] the test system is PaR3: Pseudomonas aeruginosa. Briefly: Antibiogram, MIC by the VITEK 2 system. How it is done:
as §4

Setting [13] is: EcR1, Table A2, read-out: MIC mg/L (diameter in mm).
[14] abbreviates: EcR1, VITEK 2, Table A1, read-out: MIC.
Setting [15] is: Staphylococcus aureus, Table F1, read-out: MIC.

In brackets after ≈: the same amount, converted by molar mass. Read-outs that look alike come from different tables or passages of the source.

Regarding `CO[C@@]1(NC(=O)Cc2cccs2)C(=O)N2C(C(=O)O)=C(COC(N)=O)CS[C@@H]21` [Cefoxitin], the “CA-SFM Interpretation” value is given as “Susceptible” in [1]; “Resistant” in assay [3] (EcR2, from diameter, CA-SFM 2011); “Resistant” in assay [4]; “Resistant” in [5]. The “CLSI Interpretation” value in assay [1] is reported as “Susceptible”; in assay [3] (EcR2, from diameter, CLSI 2011), “Resistant”; in [4], “Resistant”; in assay [5] (Cd CLSI 2011), “Resistant”. In addition, the Results entry in assay [1] was “Susceptible”; in assay [2] it was “Susceptible”; in assay [3] (Table B1) it was “Resistant”; in [4], “Intermediate”. Besides, the MIC in [1] (setting [13]) and in assay [1] (setting [14]) was no more than 4 mg/L each time. Also, the Diameter is 24 mm in assay [2]; 11 in [3] (EcR2, disk diffusion, Table B1); 11 mm in assay [3] (EcR2, Table B2, diameters). In addition, the “EUCAST Interpretation” value in assay [3] (EcR2, from diameter, EUCAST 2011) was “Resistant”; in assay [4], “Resistant”; in [5] (Cd EUCAST 2011), “Resistant”. The diameter in mm stood at 6 mm in assay [4] and 17 mm in [5].

`O=C(N[C@H](CO)[C@H](O)c1ccc([N+](=O)[O-])cc1)C(Cl)Cl` [Chloramphenicol]: the Diameter was determined as 6 mm in assay [5] and 25 mm in assay [7]. For the same molecule, the Results result in [5] was “Resistant”; in assay [6] (Table F1, MIC) it was “Susceptible”; in assay [7] it was “Susceptible”. The MIC in assay [6] (setting [15]) was found to be 8 µg/mL (≈ 24.8 µM).

Turning to `CCC[C@@H]1C[C@@H](C(=O)N[C@@H]([C@H]2O[C@H](SC)[C@H](O)[C@@H](O)[C@H]2O)[C@@H](C)O)N(C)C1` [Lincomycin], the “CA-SFM Interpretation” value is reported as “Susceptible” in assay [8], “Susceptible” in [5] and “Resistant” in [6]. In addition, the Results result in assay [8] (Table D1) is reported as “Susceptible”; in [5], “Susceptible”; in [6] (Table F1, MIC) it was “Resistant”; in [7] it was “Susceptible”. Also, the “MIC mg/L” value in [8] (Table D2) was “≦1 mg/L”. In addition, the MIC in assay [8] (Staphylococcus aureus, Table D1, read-out: MIC) is no more than 1 µg/mL; in assay [6] (setting [15]), no less than 16 µg/mL; in [6] (Staphylococcus aureus, Table F2, MIC, read-out: MIC), no less than 16 µg/mL. The Diameter in assay [5] stood at 23 mm; in assay [7] it was 24 mm. In assay [5], this molecule registered a diameter in mm of 23 mm.

On to `CCN[C@@H]1C[C@H](N)[C@@H](O[C@H]2OC(CN)=CC[C@H]2N)[C@H](O)[C@H]1O[C@H]1OC[C@](C)(O)[C@H](NC)[C@H]1O` [Netilmicin], for which the “CA-SFM Interpretation” value in assay [1] was “Susceptible”; in assay [9] (EcR2), “Susceptible”; in assay [4] it was “Resistant”; in assay [10], “Susceptible”; in assay [11], “Susceptible”. Further, the “CLSI Interpretation” value is given as “Susceptible” in assay [1]; “Susceptible” in assay [9] (EcR2); “Resistant” in assay [4]; “Susceptible” in [10]; “Susceptible” in [11]. The “EUCAST Interpretation” value is recorded as “Susceptible” in assay [1]; “Susceptible” in [9] (EcR2); “Resistant” in assay [4]; “Susceptible” in [10]; “Susceptible” in assay [11]. The Results entry was “Susceptible” in assay [1]; “Susceptible” in [2]; “Susceptible” in [3] (Table B1); “Resistant” in assay [4]; “Susceptible” in assay [10]; “Susceptible” in [11]. Further, the MIC is no more than 1 mg/L in assay [1] (setting [13]); no more than 1 mg/L in assay [1] (setting [14]); no more than 1 µg/mL in [9] (EcR2, VITEK 1, Table B1); no more than 1 µg/mL in assay [9] (EcR2, Table B2, MIC). In addition, the Diameter in assay [2] is 24 mm; in assay [3] (EcR2, disk diffusion, Table B1) it was 21; in assay [4] it was 10 mm; in [10] it was 28 mm; in assay [11] it was 19 mm. Besides, the values for the diameter in mm in assay [4], in assay [10] and in [11] were 10 mm, 28 mm and 19 mm, respectively.

In the case of `CC1(C)S[C@@H]2[C@H](NC(=O)[C@H](C(=O)O)c3ccsc3)C(=O)N2[C@H]1C(=O)O` [Ticarcillin], the “CA-SFM Interpretation” value in assay [1] is “Resistant”; in assay [9] (EcR2), “Resistant”; in assay [4], “Resistant”; in assay [12] (Cc CA-SFM 2011) it was “Resistant”; in [10] it was “Susceptible”; in assay [11], “Resistant”. Moreover, the “CLSI Interpretation” value in assay [1] is listed as “Resistant”; in assay [9] (EcR2) it was “Resistant”; in assay [4] it was “Resistant”; in [12] (Cc CLSI 2011) it was “Resistant”; in assay [10], “Susceptible”; in assay [11] it was “Resistant”. The “EUCAST Interpretation” value in assay [1] is “Resistant”; in assay [9] (EcR2), “Resistant”; in assay [4], “Resistant”; in assay [12] (Cc EUCAST 2011), “Resistant”; in assay [10], “Susceptible”; in assay [11], “Resistant”. Further, the Results entry in assay [1] is “Resistant”; in assay [2], “Resistant”; in [9] (EcR2, Table B1) it was “Intermediate”; in assay [4] it was “Resistant”; in [12] (Table H1) it was “Resistant”; in assay [10], “Susceptible”. Moreover, the Results result in assay [11] is “Resistant”. Also, the MIC was no less than 128 mg/L in assay [1] (setting [13]); no less than 128 mg/L in assay [1] (setting [14]); 32 µg/mL (≈ 83.2 µM) in assay [9] (EcR2, VITEK 1, Table B1); 32 µg/mL (≈ 83.2 µM) in assay [9] (EcR2, Table B2, MIC); no less than 128 µg/mL in [12] (Pseudomonas aeruginosa, Table H2, read-out: MIC); “≧128” in assay [12] (Table H1). The Diameter in [2] was found to be 6 mm; in assay [4] it was 6 mm; in assay [10] it was 32 mm; in [11] it was 10 mm. Moreover, the diameter in mm in assay [4] is on record as 6 mm; in [10] it was 32 mm; in assay [11], 10 mm.

Regarding Pristinamycin, the “CA-SFM Interpretation” value in assay [8], in assay [5] and in assay [6] was “Susceptible” throughout. The figures for the “MIC mg/L” value in [8] (Table D1), in [8] (Table D2) and in assay [6] (Table F1) were “≦0.5 mg/L”, “≦0.5 mg/L” and “≦2 mg/L”, respectively. Also, the Results entry in assay [8] (Table D1) is “Susceptible”; in [5], “Susceptible”; in [6] (Table F1, MIC), “Susceptible”; in assay [7] it was “Susceptible”. The Diameter in [5] came out at 23 mm; in assay [7] it was 25 mm. Also, in [5], the diameter in mm came out at 23 mm. Also, the MIC result in [6] (Table F2, MIC) is recorded as “≦2 mg/L”.

The values above are taken from US20140066365A1, “USE OF CALIXARENES ASSOCIATED WITH AN ANTIBIOTIC IN THE TREATMENT OF BACTERIAL INFECTIONS” (priority 2011, published 2014).
